Assay results published in US8192962B2, “Processes for detecting toxic substances” (Daikin Industries, Ltd., priority 2001, dated 2012).

System: Detoxification protein genes
Experiment: DNA chip mRNA expression in yeast, detoxification protein genes (Table 8)
Type: cell-based, Saccharomyces cerevisiae S288C
In short: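 Expression change after 2 h toxicant exposure (growth-inhibiting, sub-lethal) of log-phase S. cerevisiae S288C at 25° C. Oligo-dT-purified mRNA was labeled with Cy3-dUTP or Cy5-dUTP and hybridized >12 h at 65° C. to a genome-wide chip; ratio of scanned fluorescence to control.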

COc1cc(CNC(=O)CCCCC=CC(C)C)ccc1O [(12), 8-methyl-N-vanillyl-6-nonenamide]
The level of expressed mRNA in the presence of chemical substance/The level of expressed mRNA in the absence of chemical substance (yeast gene YBL064C): 1.7 | The level of expressed mRNA in the presence of chemical substance/The level of expressed mRNA in the absence of chemical substance (yeast gene YBR008C): 0.8 | The level of expressed mRNA in the presence of chemical substance/The level of expressed mRNA in the absence of chemical substance (yeast gene YBR145W): 1.0 | The level of expressed mRNA in the presence of chemical substance/The level of expressed mRNA in the absence of chemical substance (yeast gene YBR244W): 0.5 | The level of expressed mRNA in the presence of chemical substance/The level of expressed mRNA in the absence of chemical substance (yeast gene YBR293W): 1.0 | The level of expressed mRNA in the presence of chemical substance/The level of expressed mRNA in the absence of chemical substance (yeast gene YCL035C): 1.5 | The level of expressed mRNA in the presence of chemical substance/The level of expressed mRNA in the absence of chemical substance (yeast gene YCL069W): 0.9 | The level of expressed mRNA in the presence of chemical substance/The level of expressed mRNA in the absence of chemical substance (yeast gene YCR083W): 1.1 | The level of expressed mRNA in the presence of chemical substance/The level of expressed mRNA in the absence of chemical substance (yeast gene YDL100C): 1.5 | The level of expressed mRNA in the presence of chemical substance/The level of expressed mRNA in the absence of chemical substance (yeast gene YDL168W): 0.6 | The level of expressed mRNA in the presence of chemical substance/The level of expressed mRNA in the absence of chemical substance (yeast gene YDR256C): 0.8 | The level of expressed mRNA in the presence of chemical substance/The level of expressed mRNA in the absence of chemical substance (yeast gene YDR453C): 0.9 | The level of expressed mRNA in the presence of chemical substance/The level of expressed mRNA in the absence of chemical substance (yeast gene YDR513W): 0.9 | The level of expressed mRNA in the presence of chemical substance/The level of expressed mRNA in the absence of chemical substance (yeast gene YDR538W): 0.7 | The level of expressed mRNA in the presence of chemical substance/The level of expressed mRNA in the absence of chemical substance (yeast gene YEL027W): 0.9 | The level of expressed mRNA in the presence of chemical substance/The level of expressed mRNA in the absence of chemical substance (yeast gene YEL065W): 1.7 | The level of expressed mRNA in the presence of chemical substance/The level of expressed mRNA in the absence of chemical substance (yeast gene YER185W): 1.1 | The level of expressed mRNA in the presence of chemical substance/The level of expressed mRNA in the absence of chemical substance (yeast gene YFL050C): 0.9 | The level of expressed mRNA in the presence of chemical substance/The level of expressed mRNA in the absence of chemical substance (yeast gene YGL013C): 1.0 | The level of expressed mRNA in the presence of chemical substance/The level of expressed mRNA in the absence of chemical substance (yeast gene YGL254W): 1.2 | The level of expressed mRNA in the presence of chemical substance/The level of expressed mRNA in the absence of chemical substance (yeast gene YGR088W): 1.1 | The level of expressed mRNA in the presence of chemical substance/The level of expressed mRNA in the absence of chemical substance (yeast gene YGR138C): 0.6 | The level of expressed mRNA in the presence of chemical substance/The level of expressed mRNA in the absence of chemical substance (yeast gene YGR197C): 1.2 | The level of expressed mRNA in the presence of chemical substance/The level of expressed mRNA in the absence of chemical substance (yeast gene YGR209C): 0.9 | The level of expressed mRNA in the presence of chemical substance/The level of expressed mRNA in the absence of chemical substance (yeast gene YGR224W): 0.6 | The level of expressed mRNA in the presence of chemical substance/The level of expressed mRNA in the absence of chemical substance (yeast gene YHL040C): 2.0 | The level of expressed mRNA in the presence of chemical substance/The level of expressed mRNA in the absence of chemical substance (yeast gene YHL047C): 2.6 | The level of expressed mRNA in the presence of chemical substance/The level of expressed mRNA in the absence of chemical substance (yeast gene YHR008C): 0.7 | The level of expressed mRNA in the presence of chemical substance/The level of expressed mRNA in the absence of chemical substance (yeast gene YHR048W): 0.9 | The level of expressed mRNA in the presence of chemical substance/The level of expressed mRNA in the absence of chemical substance (yeast gene YHR053C): 1.1 | The level of expressed mRNA in the presence of chemical substance/The level of expressed mRNA in the absence of chemical substance (yeast gene YHR055C): 1.2 | The level of expressed mRNA in the presence of chemical substance/The level of expressed mRNA in the absence of chemical substance (yeast gene YIR002C): 1.3 | The level of expressed mRNA in the presence of chemical substance/The level of expressed mRNA in the absence of chemical substance (yeast gene YIR038C): 1.1 | The level of expressed mRNA in the presence of chemical substance/The level of expressed mRNA in the absence of chemical substance (yeast gene YJL101C): 0.7 | The level of expressed mRNA in the presence of chemical substance/The level of expressed mRNA in the absence of chemical substance (yeast gene YJR104C): 0.9 | The level of expressed mRNA in the presence of chemical substance/The level of expressed mRNA in the absence of chemical substance (yeast gene YKL026C): 1.0 | The level of expressed mRNA in the presence of chemical substance/The level of expressed mRNA in the absence of chemical substance (yeast gene YKL064W): 0.7 | The level of expressed mRNA in the presence of chemical substance/The level of expressed mRNA in the absence of chemical substance (yeast gene YKR066C): 0.9 | The level of expressed mRNA in the presence of chemical substance/The level of expressed mRNA in the absence of chemical substance (yeast gene YKR105C): 0.8 | The level of expressed mRNA in the presence of chemical substance/The level of expressed mRNA in the absence of chemical substance (yeast gene YKR106W): 0.8 | The level of expressed mRNA in the presence of chemical substance/The level of expressed mRNA in the absence of chemical substance (yeast gene YLL028W): 1.3 | The level of expressed mRNA in the presence of chemical substance/The level of expressed mRNA in the absence of chemical substance (yeast gene YLL057C): 0.7 | The level of expressed mRNA in the presence of chemical substance/The level of expressed mRNA in the absence of chemical substance (yeast gene YLL060C): 1.1 | The level of expressed mRNA in the presence of chemical substance/The level of expressed mRNA in the absence of chemical substance (yeast gene YLR043C): 0.8 | The level of expressed mRNA in the presence of chemical substance/The level of expressed mRNA in the absence of chemical substance (yeast gene YLR046C): 0.8 | The level of expressed mRNA in the presence of chemical substance/The level of expressed mRNA in the absence of chemical substance (yeast gene YML028W): 1.6 | The level of expressed mRNA in the presence of chemical substance/The level of expressed mRNA in the absence of chemical substance (yeast gene YML116W): 0.5 | The level of expressed mRNA in the presence of chemical substance/The level of expressed mRNA in the absence of chemical substance (yeast gene YMR015C): 0.9 | The level of expressed mRNA in the presence of chemical substance/The level of expressed mRNA in the absence of chemical substance (yeast gene YMR038C): 0.9 | The level of expressed mRNA in the presence of chemical substance/The level of expressed mRNA in the absence of chemical substance (yeast gene YNL239W): 1.5 | The level of expressed mRNA in the presence of chemical substance/The level of expressed mRNA in the absence of chemical substance (yeast gene YNL241C): 2.0 | The level of expressed mRNA in the presence of chemical substance/The level of expressed mRNA in the absence of chemical substance (yeast gene YNL259C): 0.7 | The level of expressed mRNA in the presence of chemical substance/The level of expressed mRNA in the absence of chemical substance (yeast gene YOL158C): 0.9 | The level of expressed mRNA in the presence of chemical substance/The level of expressed mRNA in the absence of chemical substance (yeast gene YOR031W): 0.8 | The level of expressed mRNA in the presence of chemical substance/The level of expressed mRNA in the absence of chemical substance (yeast gene YOR153W): 4.0 | The level of expressed mRNA in the presence of chemical substance/The level of expressed mRNA in the absence of chemical substance (yeast gene YOR247W): 0.6 | The level of expressed mRNA in the presence of chemical substance/The level of expressed mRNA in the absence of chemical substance (yeast gene YOR251C): 0.9 | The level of expressed mRNA in the presence of chemical substance/The level of expressed mRNA in the absence of chemical substance (yeast gene YOR273C): 0.8 | The level of expressed mRNA in the presence of chemical substance/The level of expressed mRNA in the absence of chemical substance (yeast gene YPL163C): 0.9 | The level of expressed mRNA in the presence of chemical substance/The level of expressed mRNA in the absence of chemical substance (yeast gene YPR200C): 0.4
